Assay results published in patent publication US6335320B1, “Method of treating fibrotic conditions” (UCB S.A., priority 1998, dated 2002).
No end group written: not given here.

Experiments:
[1] = test system: SM cells; settings: culture of SM cells, microinjection; cited from earlier work
[2] = test system: anti-alpha SM-1; settings: cited from earlier work
[3] = test system: splinted wound; experiment: Open splinted wound contraction model in rats; format: in vivo, rat; settings: topical
Excerpt: Test upon an open “splinted Wound” in Rats
In order to measure exclusively contraction, the inventors have developed the “splinted wound” model, based upon the technique of Gabbiani G. et al., J. of Exp.
The wound 2×2 cm in the back of the rat is fixed by suturing its margins to a plastic frame using suture thread (Supramid, metric 3, Braun, Emmenbrücke) on day 0. […] The peptidic product is applied on the open wound starting at the 7th day usually for 3 days and releases the suture of the frame, thus allowing an accelerated contraction which in controls reduces the area of the wound of about ⅔ within 48 hours.
We have measured morphometrically the contraction of the wound (5 rats per group) by means of planimetry (KS 400, Zeiss Vision) and studied the tissues morphologically by means of histological techniques, immunofluorescence with the α-SM actin antibody according to a method described in Gabbiani et al., J. Exp. Med. 1972 (p.15, line 8) and Darby et al. Lab. Invest. 1990 (p.1, line 24-25).
Table 3 presents the wound size (surface in cm^2) measured on day 3 as a percentage of the wound size measured on day 0.
The rats were treated with the peptidic product of example 1 at a dose of 3 mg/ml (mg of peptidic product, ml of 0.9% NaCl).

[4] = test system: α-SM actin; experiment: Effect on α-SM actin biosynthesis (S35 methionine incorporation) in VSMC; format: cell-based, rat; settings: for α-SM actin synthesis, control standardised at 100%: 2 mg/ml, VSMC, 37° C.
Experimental: In this table, the values of the control conditions were standardised at a 100% starting value (time=0 hour).

Acetyl-glutamyl-glutamyl-glutamyl-aspartyl (Ac-EEED) [AcEEED]
incorporation of α-SM actin into stress fibers [1]: inhibits the incorporation of α-SM actin into stress fibers

AcEEEDSTALVC (Ac-EEEDSTALVC) [amino terminal decapeptide of α-SM actin]
blocking effects on the binding of monoclonal antibody anti-alpha SM-1 [2]: blocking effects

ε-(Acetyl Glu Glu Glu Asp) Lys Arg Gln Ile Lys Ile Trp Phe Gln Asn Arg Arg Met Lys Trp Lys Lys OH [example 1, ε-(AcEEED)-K-(pAntp[43-58])]
contractile activity of the wound ([3]; 3 mg/ml): decrease in contractile activity
Wound surface: wound size on day 3 as a percentage of the wound size on day 0 ([3]; 3 mg/ml in 0.9% NaCl, 5 rats per group): 48.42 ± 2.02%
α-SM actin synthesis, control standardised at 100% ([4]; Experiment 1, 20 hours): 72%
α-SM actin synthesis, control standardised at 100% ([4]; Experiment 2, 20 hours): 56%
α-SM actin synthesis, control standardised at 100% ([4]; Experiment 3, 20 hours): 44%
α-SM actin synthesis, control standardised at 100% ([4]; Experiment 4, 20 hours): 48%
α-SM actin synthesis, control standardised at 100% ([4]; Mean of 4 experiments, 20 hours): 55%
decrease of the α-SM actin synthesis compared to control conditions ([4]; mean value for the 4 experiments, 2 mg/ml culture medium): 55%
